Where only a bound is given, the exact number is not on record here.

The target in this experiment is T1, AAK1 (Homo sapiens, UniProt Q2M2I8).
T1 construct: HA; expressed in transfected cells; host or cells: HEK293F
T1 sequence (Q2M2I8 1-863 isoform Q2M2I8-2): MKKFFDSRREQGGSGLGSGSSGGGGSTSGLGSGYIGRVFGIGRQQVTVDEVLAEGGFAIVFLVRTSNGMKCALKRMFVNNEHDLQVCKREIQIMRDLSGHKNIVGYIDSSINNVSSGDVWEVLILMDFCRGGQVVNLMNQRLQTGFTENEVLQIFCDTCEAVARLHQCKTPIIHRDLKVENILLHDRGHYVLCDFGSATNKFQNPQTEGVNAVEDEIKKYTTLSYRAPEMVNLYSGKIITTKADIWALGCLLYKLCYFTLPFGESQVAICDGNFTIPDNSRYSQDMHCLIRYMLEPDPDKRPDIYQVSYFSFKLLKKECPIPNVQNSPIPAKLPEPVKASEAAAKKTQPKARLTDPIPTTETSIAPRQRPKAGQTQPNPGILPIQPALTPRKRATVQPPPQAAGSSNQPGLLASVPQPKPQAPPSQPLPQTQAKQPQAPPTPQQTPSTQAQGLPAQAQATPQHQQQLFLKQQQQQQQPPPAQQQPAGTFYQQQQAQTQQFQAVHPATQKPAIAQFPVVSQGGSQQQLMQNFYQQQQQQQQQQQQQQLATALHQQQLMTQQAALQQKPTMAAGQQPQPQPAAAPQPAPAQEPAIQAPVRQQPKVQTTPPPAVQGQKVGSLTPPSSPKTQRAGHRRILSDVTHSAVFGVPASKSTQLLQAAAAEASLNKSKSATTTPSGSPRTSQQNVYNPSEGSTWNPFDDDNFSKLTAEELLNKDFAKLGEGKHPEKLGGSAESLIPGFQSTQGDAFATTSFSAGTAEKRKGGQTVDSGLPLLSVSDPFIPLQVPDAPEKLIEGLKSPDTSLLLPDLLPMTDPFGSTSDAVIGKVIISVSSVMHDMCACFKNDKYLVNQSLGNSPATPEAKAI
Kind of experiment: HEK281 cell-based assay (phospho-mu2 Western blot in transfected HEK293F cells). The following applies: 3 hours incubation, read-out: CBA IC50. In a few lines:
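After 3 hours at 37° C. with compound (five 3-fold-spaced concentrations, DMEM+0.5% FBS), transiently transfected HEK293F cells expressing full-length human AAK1 and Flag-tagged mu2 were lysed. mu2 phosphorylation was read by anti-phospho-mu2 immunoblot, normalized against total mu2 by anti-Flag blot.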
Background: In western blotting, separated proteins are transferred to a membrane and probed.
A word on the IC50: it is the concentration that inhibits the measured activity by half. Turning to `CCOC(=O)N1CCC[C@H]1CNc1ccc2ncc(-c3ccncc3OC)n2n1` [(S)-ethyl 2-(((3-(3-methoxypyridin-4-yl)imidazo[1,2-b]pyridazin-6-yl)amino)methyl)pyrrolidine-1-carboxylate], the IC50 is no more than 100 nM.

`CCOC(=O)N1CCC[C@H]1CNc1ccc2ncc(-c3ccc(CN)cc3)n2n1` [(S)-ethyl 2-(((3-(4-(aminomethyl)phenyl)imidazo[1,2-b]pyridazin-6-yl)amino)methyl)pyrrolidine-1-carboxylate]: the IC50 was no more than 10 nM.

Take `CCOC(=O)N1CCC[C@H]1CNc1ccc2ncc(-c3ccncc3)n2n1` [(S)-ethyl 2-(((3-(pyridin-4-yl)imidazo[1,2-b]pyridazin-6-yl)amino)methyl)pyrrolidine-1-carboxylate]: the IC50 was no more than 100 nM.

Consider `CCOC(=O)N1CCC[C@H]1CNc1ccc2ncc(Br)n2n1` [(S)-ethyl 2-(((3-bromoimidazo[1,2-b]pyridazin-6-yl)amino)methyl)pyrrolidine-1-carboxylate], for which the 50% inhibitory concentration (IC50) was no more than 100 nM.

On to `CCOC(=O)N(C)[C@H]1CCN(c2ccc3ncc(-c4ccc(C)nc4OC)n3n2)C1` [(S)-ethyl (1-(3-(2-methoxy-6-methylpyridin-3-yl)imidazo[1,2-b]pyridazin-6-yl)pyrrolidin-3-yl)(methyl)carbamate], for which the IC50 was no more than 100 nM.

As for `COc1ccccc1-c1cnc2ccc(NC[C@@H]3CCCN3C(=O)OC(C)C)nn12` [(S)-isopropyl 2-(((3-(2-methoxyphenyl)imidazo[1,2-b]pyridazin-6-yl)amino)methyl)pyrrolidine-1-carboxylate], the half-maximal inhibitory concentration (IC50) is no more than 10 nM.

As to `COc1cnccc1-c1cnc2ccc(NC[C@@H]3CCCN3C(=O)OC(C)C)nn12` [(S)-isopropyl 2-(((3-(3-methoxypyridin-4-yl)imidazo[1,2-b]pyridazin-6-yl)amino)methyl)pyrrolidine-1-carboxylate], the IC50 was no more than 10 nM.

In the case of `CC(C)OC(=O)N1CCC[C@H]1CNc1ccc2ncc(-c3ccc(CN)cc3)n2n1` [(S)-isopropyl 2-(((3-(4-(aminomethyl)phenyl)imidazo[1,2-b]pyridazin-6-yl)amino)methyl)pyrrolidine-1-carboxylate], the IC50 is no more than 10 nM.

Regarding `C=C(C)c1cnc2ccc(NC[C@@H]3CCCN3C(=O)OC(C)C)nn12` [(S)-isopropyl 2-(((3-(prop-1-en-2-yl)imidazo[1,2-b]pyridazin-6-yl)amino)methyl)pyrrolidine-1-carboxylate], the 50% inhibitory concentration (IC50) is no more than 100 nM.

`CC(C)OC(=O)N1CCC[C@H]1CNc1ccc2ncc(Br)n2n1` [(S)-isopropyl 2-(((3-bromoimidazo[1,2-b]pyridazin-6-yl)amino)methyl)pyrrolidine-1-carboxylate]: the IC50 is no more than 1000 nM.

With `CC(C)OC(=O)N1CCC[C@H]1CNc1ccc2ncc(C3CC3)n2n1` [(S)-isopropyl 2-(((3-cyclopropylimidazo[1,2-b]pyridazin-6-yl)amino)methyl)pyrrolidine-1-carboxylate], the IC50 was no more than 1000 nM.

For `C=Cc1cnc2ccc(NC[C@@H]3CCCN3C(=O)OC(C)C)nn12` [(S)-isopropyl 2-(((3-vinylimidazo[1,2-b]pyridazin-6-yl)amino)methyl)pyrrolidine-1-carboxylate], the half-maximal inhibitory concentration (IC50) is no more than 10 nM.

Consider `CC(C)OC(=O)N(C)CCNc1ccc2ncc(-c3ccc([C@@H]4CCCN4)cc3)n2n1` [(S)-isopropyl methyl(2-((3-(4-(pyrrolidin-2-yl)phenyl)imidazo[1,2-b]pyridazin-6-yl)amino)ethyl)carbamate], for which the IC50 was no more than 100 nM.

As for `COC(=O)N1CCC[C@H]1CNc1ccc2ncc(-c3ccccc3OC)n2n1` [(S)-methyl 2-(((3-(2-methoxyphenyl)imidazo[1,2-b]pyridazin-6-yl)amino)methyl)pyrrolidine-1-carboxylate], the IC50 was no more than 100 nM.

For `COC(=O)N1CCC[C@H]1CNc1ccc2ncc(-c3ccncc3OC)n2n1` [(S)-methyl 2-(((3-(3-methoxypyridin-4-yl)imidazo[1,2-b]pyridazin-6-yl)amino)methyl)pyrrolidine-1-carboxylate], the 50% inhibitory concentration (IC50) is no more than 100 nM.

For `COC(=O)N1CCC[C@H]1CNc1ccc2ncc(-c3ccc(CN)cc3)n2n1` [(S)-methyl 2-(((3-(4-(aminomethyl)phenyl)imidazo[1,2-b]pyridazin-6-yl)amino)methyl)pyrrolidine-1-carboxylate], the half-maximal inhibitory concentration (IC50) is no more than 100 nM.

Take `COC(=O)N1CCC[C@H]1CNc1ccc2ncc(Br)n2n1` [(S)-methyl 2-(((3-bromoimidazo[1,2-b]pyridazin-6-yl)amino)methyl)pyrrolidine-1-carboxylate]: the IC50 was no more than 1000 nM.

In the case of `CC(C)(C)COC(=O)N1CCC[C@H]1CNc1ccc2ncc(Br)n2n1` [(S)-neopentyl 2-(((3-bromoimidazo[1,2-b]pyridazin-6-yl)amino)methyl)pyrrolidine-1-carboxylate], the IC50 was no more than 100 nM.

With `COc1ccccc1-c1cnc2ccc(NC[C@@H]3CCCN3C(=O)OC(C)(C)C)nn12` [(S)-tert-butyl 2-(((3-(2-methoxyphenyl)imidazo[1,2-b]pyridazin-6-yl)amino)methyl)pyrrolidine-1-carboxylate], the IC50 was no more than 10 nM.

In the case of `COc1cnccc1-c1cnc2ccc(NC[C@@H]3CCCCN3C(=O)OC(C)(C)C)nn12` [(S)-tert-butyl 2-(((3-(3-methoxypyridin-4-yl)imidazo[1,2-b]pyridazin-6-yl)amino)methyl)piperidine-1-carboxylate], the concentration for half-maximal inhibition (IC50) is no more than 100 nM.

As for `CC(C)(C)OC(=O)N1CCCC[C@H]1CNc1ccc2ncc(-c3ccc(CN)cc3)n2n1` [(S)-tert-butyl 2-(((3-(4-(aminomethyl)phenyl)imidazo[1,2-b]pyridazin-6-yl)amino)methyl)piperidine-1-carboxylate], the IC50 is no more than 10 nM.

As to `CC(C)(C)OC(=O)N1CCCC[C@H]1CNc1ccc2ncc(-c3ccncc3)n2n1` [(S)-tert-butyl 2-(((3-(pyridin-4-yl)imidazo[1,2-b]pyridazin-6-yl)amino)methyl)piperidine-1-carboxylate], the IC50 was no more than 100 nM.

In the case of `CC(C)(C)OC(=O)N1CCC[C@H]1CNc1ccc2ncc(C(F)(F)F)n2n1` [(S)-tert-butyl 2-(((3-(trifluoromethyl)imidazo[1,2-b]pyridazin-6-yl)amino)methyl)pyrrolidine-1-carboxylate], the IC50 was no more than 100 nM.

For the compound `CC(C)(C)OC(=O)N1CCC[C@H]1CNc1ccc2ncc(Br)n2n1` [(S)-tert-butyl 2-(((3-bromoimidazo[1,2-b]pyridazin-6-yl)amino)methyl)pyrrolidine-1-carboxylate], the IC50 is no more than 100 nM.

In the case of `CC(C)(C)OC(=O)N1CCC[C@H]1CNc1ccc2ncc(Cl)n2n1` [(S)-tert-butyl 2-(((3-chloroimidazo[1,2-b]pyridazin-6-yl)amino)methyl)pyrrolidine-1-carboxylate], the IC50 is no more than 100 nM.

As for `CCc1cnc2ccc(NC[C@@H]3CCCN3C(=O)OC(C)(C)C)nn12` [(S)-tert-butyl 2-(((3-ethylimidazo[1,2-b]pyridazin-6-yl)amino)methyl)pyrrolidine-1-carboxylate], the IC50 was no more than 100 nM.

As to `CC(C)(C)OC(=O)N1CCC[C@H]1CNc1ccc2ncc(I)n2n1` [(S)-tert-butyl 2-(((3-iodoimidazo[1,2-b]pyridazin-6-yl)amino)methyl)pyrrolidine-1-carboxylate], the concentration for half-maximal inhibition (IC50) was no more than 10 nM.

For `COc1cnccc1-c1cnc2ccc(NC[C@@H]3CCN(C(=O)OC(C)(C)C)C3)nn12` [(S)-tert-butyl 3-(((3-(3-methoxypyridin-4-yl)imidazo[1,2-b]pyridazin-6-yl)amino)methyl)pyrrolidine-1-carboxylate], the IC50 was no more than 1000 nM.

`CC(C)(C)OC(=O)N1CC[C@@H](CNc2ccc3ncc(-c4ccc(CN)cc4)n3n2)C1` [(S)-tert-butyl 3-(((3-(4-(aminomethyl)phenyl)imidazo[1,2-b]pyridazin-6-yl)amino)methyl)pyrrolidine-1-carboxylate]: the IC50 was no more than 100 nM.

On to `CC(C)(C)OC(=O)N1CC[C@@H](CNc2ccc3ncc(Br)n3n2)C1` [(S)-tert-butyl 3-(((3-bromoimidazo[1,2-b]pyridazin-6-yl)amino)methyl)pyrrolidine-1-carboxylate], for which the IC50 is no more than 1000 nM.

On to `CCCCNc1ccc2ncc(-c3ccc4cnccc4c3)n2n1` [Butyl-(3-isoquinolin-6-yl-imidazo[1,2-b]pyridazin-6-yl)amine], for which the IC50 was no more than 100 nM.

In the case of `CCOC(=O)CCCNc1ccc2ncc(-c3ccc(C(C)=O)s3)n2n1` [Ethyl 4-((3-(5-acetylthiophen-2-yl)imidazo[1,2-b]pyridazin-6-yl)amino)butanoate], the IC50 was no more than 100 nM.

On to `CN(CCNc1ccc2ncc(-c3ccc(CN)cc3)n2n1)c1ccccc1` [N1-(3-(4-(aminomethyl)phenyl)imidazo[1,2-b]pyridazin-6-yl)-N2-methyl-N2-phenylethane-1,2-diamine], for which the half-maximal inhibitory concentration (IC50) is no more than 100 nM.

For the compound `CN(CCCNc1ccc2ncc(-c3ccc(CN)cc3)n2n1)c1ccccc1` [N1-(3-(4-(aminomethyl)phenyl)imidazo[1,2-b]pyridazin-6-yl)-N3-methyl-N3-phenylpropane-1,3-diamine], the IC50 was no more than 100 nM.

Turning to `CN(CCCNc1ccc2ncc(-c3ccc(CN)s3)n2n1)c1ccccc1` [N1-(3-(5-(aminomethyl)thiophen-2-yl)imidazo[1,2-b]pyridazin-6-yl)-N3-methyl-N3-phenylpropane-1,3-diamine], the half-inhibitory concentration (IC50) was no more than 1000 nM.

For the compound `CC(C)(C)CCNc1ccc2ncc(-c3ccc(CNCCN)cc3)n2n1` [N1-(4-(6-((3,3-dimethylbutyl)amino)imidazo[1,2-b]pyridazin-3-yl)benzyl)ethane-1,2-diamine], the half-inhibitory concentration (IC50) was no more than 1000 nM.

Regarding `CCCCNc1ccc2ncc(-c3ccc(CNCCN)cc3)n2n1` [N1-(4-(6-(butylamino)imidazo[1,2-b]pyridazin-3-yl)benzyl)ethane-1,2-diamine], the IC50 is no more than 1000 nM.

As for `CCCCNc1ccc2ncc(-c3ccc(CNCCCN)cc3)n2n1` [N1-(4-(6-(butylamino)imidazo[1,2-b]pyridazin-3-yl)benzyl)propane-1,3-diamine], the IC50 was no more than 1000 nM.

Source of the values: patent US8969565B2, “Imidazo[1,2-b]pyridazine-based compounds, compositions comprising them, and methods of their use” (Lexicon Pharmaceuticals, Inc., priority 2012, dated 2015).
